In patent publication US4409314A, “Light-sensitive compounds, light-sensitive mixture, and light-sensitive copying material prepared therefrom” (Hoechst Aktiengesellschaft, priority 1980, dated 1983):
Read-outs that look alike come from different tables or passages of the source.

Experiments:
[1] = Solubility in n-butyl acetate; type: physicochemical; conditions: 1 g crystalline diazo compound stirred 2 hours in 25 g n-butyl acetate
Description: (§1) In each case, 1 to 4 g of crystalline diazo compound were stirred in 25 g of ethylene glycol monomethyl ether, which is the most important solvent in coating technology, for 2 hours at room temperature and the mixture was allowed to stand for a further 70 hours without stirring, in order to complete the crystallization of possible amorphous constituents. The mixture was then filtered off with suction, and the filter residue was washed successively with 10 ml of methanol and 10 ml of ether, dried in vacuo, and its weight was determined. The solubilities in ethylene glycol monomethyl ether, listed in Table 3, were calculated from the difference relative to the quantity employed.
In a further widely used solvent, namel
1 g of the crystalline diazo compound was stirred for 2 hours in 25 g of
nbutyl acetate. The mixtures were then worked up as in Example 1.

[2] = type: physicochemical; conditions: for Solubility (%): 4320 min; for Appearance of solution in ethylene glycol monomethyl ether: no precipitations even after 3 days
Description: as §1

[3] = 3 g of compound in 25 g solvent

Solubility (%) [2] [%]	further results	SMILES
1.0	Solubility (%) in butyl acetate [1]: 0.50%	[N-]=[N+]=C1C=Cc2c(cccc2S(=O)(=O)Oc2ccc(C(=O)c3ccccc3)c(OS(=O)(=O)c3cccc4c3C=CC(=[N+]=[N-])C4=O)c2OS(=O)(=O)c2cccc3c2C=CC(=[N+]=[N-])C3=O)C1=O [V, tris-1,2-naphthoquinone-2-diazide-5-sulfonic acid ester of 2,3,4-trihydroxy-benzophenone, reference compound]
4.3	–	CCOCCOC(=O)c1ccc(OS(=O)(=O)c2cccc3c2C=CC(=[N+]=[N-])C3=O)c(OS(=O)(=O)c2cccc3c2C=CC(=[N+]=[N-])C3=O)c1 [Compound 14]
4.7	–	CC(C)CCOC(=O)c1ccc(OS(=O)(=O)c2cccc3c2C=CC(=[N+]=[N-])C3=O)c(OS(=O)(=O)c2cccc3c2C=CC(=[N+]=[N-])C3=O)c1 [Compound 13]
10.5	–	CC(CC(=O)c1ccc(OS(=O)(=O)C2=CC(=[N+]=[N-])C(=O)c3ccccc32)cc1OS(=O)(=O)C1=CC(=[N+]=[N-])C(=O)c2ccccc21)CC(C)(C)C (stereo not shown) [Compound 6]
1.03	–	CC(=O)c1ccc(OS(=O)(=O)c2cccc3c2C=CC(=[N+]=[N-])C3=O)cc1OS(=O)(=O)c1cccc2c1C=CC(=[N+]=[N-])C2=O [Compound 1]
3.7	–	CCOCCOC(=O)c1ccc(OS(=O)(=O)C2=CC(=[N+]=[N-])C(=O)c3ccccc32)c(OS(=O)(=O)C2=CC(=[N+]=[N-])C(=O)c3ccccc32)c1 [Compound 15]
2.3	–	CC(C)CCOC(=O)c1ccc(OS(=O)(=O)C2=CC(=[N+]=[N-])C(=O)c3ccccc32)cc1OS(=O)(=O)C1=CC(=[N+]=[N-])C(=O)c2ccccc21 [Compound 11]
7.5	Solubility (%) in butyl acetate [1]: 2.03%	CCCCCCCCCCCCOC(=O)c1ccc(OS(=O)(=O)c2cccc3c2C=CC(=[N+]=[N-])C3=O)cc1OS(=O)(=O)c1cccc2c1C=CC(=[N+]=[N-])C2=O [Compound 17]
4.3	–	CCCCC(CC)C(=O)c1ccc(OS(=O)(=O)C2=CC(=[N+]=[N-])C(=O)c3ccccc32)cc1OS(=O)(=O)C1=CC(=[N+]=[N-])C(=O)c2ccccc21 (stereo not shown) [Compound 4]
> 13.8	Appearance of solution in ethylene glycol monomethyl ether ([2]; 4 g of compound in 25 g solvent): clear	CCCCC(CC)C(=O)c1ccc(OS(=O)(=O)c2cccc3c2C=CC(=[N+]=[N-])C3=O)cc1OS(=O)(=O)c1cccc2c1C=CC(=[N+]=[N-])C2=O (stereo not shown) [Compound 3]
4.6	–	CCCCCCCCCCCCOC(=O)c1cc(OS(=O)(=O)c2cccc3c2C=CC(=[N+]=[N-])C3=O)cc(OS(=O)(=O)c2cccc3c2C=CC(=[N+]=[N-])C3=O)c1 [Compound 18]
–	Solubility (%) in butyl acetate [1]: 1.03%	CCCCCCCCCCCCCCCC(=O)c1ccc(OS(=O)(=O)c2cccc3c2C=CC(=[N+]=[N-])C3=O)cc1OS(=O)(=O)c1cccc2c1C=CC(=[N+]=[N-])C2=O [Compound 7]
5.0	–	CCOCCOC(=O)c1cc(OS(=O)(=O)c2cccc3c2C=CC(=[N+]=[N-])C3=O)cc(OS(=O)(=O)c2cccc3c2C=CC(=[N+]=[N-])C3=O)c1 [Compound 16]
–	Solubility (%) in butyl acetate [1]: 1.75%	CCCCCCCCCCCCCCCC(=O)c1ccc(OS(=O)(=O)C2=CC(=[N+]=[N-])C(=O)c3ccccc32)cc1OS(=O)(=O)C1=CC(=[N+]=[N-])C(=O)c2ccccc21 [Compound 8]
> 10.7	Appearance of solution in ethylene glycol monomethyl ether [2, 3]: clear	CC(CC(=O)c1ccc(OS(=O)(=O)c2cccc3c2C=CC(=[N+]=[N-])C3=O)cc1OS(=O)(=O)c1cccc2c1C=CC(=[N+]=[N-])C2=O)CC(C)(C)C (stereo not shown) [Compound 5]
0.87	–	COC(=O)c1ccc(OS(=O)(=O)c2cccc3c2C=CC(=[N+]=[N-])C3=O)cc1OS(=O)(=O)c1cccc2c1C=CC(=[N+]=[N-])C2=O [Compound 10]
> 10.7	Appearance of solution in ethylene glycol monomethyl ether [2, 3]: clear	CCCCC(=O)c1ccc(OS(=O)(=O)c2cccc3c2C=CC(=[N+]=[N-])C3=O)cc1OS(=O)(=O)c1cccc2c1C=CC(=[N+]=[N-])C2=O [Compound 2]
